From publication PMC5371667, “Targeting Bile Acid Receptors: Discovery of a Potent and Selective Farnesoid X Receptor Agonist as a New Lead in the Pharmacological Approach to Liver Diseases” (Frontiers in Pharmacology, 2017)

Key:
hFXR = target: T1, hFXR (Homo sapiens, UniProt Q96RI1); test: FXR transactivation on HepG2 cells (luciferase reporter); type: cell-based
T1 construct: expressed in transfected cells; host or cells: HepG2
T1 sequence (Q96RI1 1-486): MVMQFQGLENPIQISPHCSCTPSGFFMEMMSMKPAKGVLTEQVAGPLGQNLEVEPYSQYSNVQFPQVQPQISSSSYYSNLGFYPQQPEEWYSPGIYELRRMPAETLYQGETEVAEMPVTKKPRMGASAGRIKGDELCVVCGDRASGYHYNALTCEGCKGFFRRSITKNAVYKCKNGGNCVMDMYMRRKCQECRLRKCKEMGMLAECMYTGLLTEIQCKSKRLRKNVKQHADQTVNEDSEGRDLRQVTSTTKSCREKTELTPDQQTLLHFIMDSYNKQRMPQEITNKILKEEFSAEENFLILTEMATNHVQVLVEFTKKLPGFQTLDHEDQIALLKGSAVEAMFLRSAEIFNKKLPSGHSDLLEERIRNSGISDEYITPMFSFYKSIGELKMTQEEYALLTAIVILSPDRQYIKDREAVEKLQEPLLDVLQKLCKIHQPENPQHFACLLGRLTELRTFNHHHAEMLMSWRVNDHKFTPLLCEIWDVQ
T1 sequence (P19793 1-462 partner): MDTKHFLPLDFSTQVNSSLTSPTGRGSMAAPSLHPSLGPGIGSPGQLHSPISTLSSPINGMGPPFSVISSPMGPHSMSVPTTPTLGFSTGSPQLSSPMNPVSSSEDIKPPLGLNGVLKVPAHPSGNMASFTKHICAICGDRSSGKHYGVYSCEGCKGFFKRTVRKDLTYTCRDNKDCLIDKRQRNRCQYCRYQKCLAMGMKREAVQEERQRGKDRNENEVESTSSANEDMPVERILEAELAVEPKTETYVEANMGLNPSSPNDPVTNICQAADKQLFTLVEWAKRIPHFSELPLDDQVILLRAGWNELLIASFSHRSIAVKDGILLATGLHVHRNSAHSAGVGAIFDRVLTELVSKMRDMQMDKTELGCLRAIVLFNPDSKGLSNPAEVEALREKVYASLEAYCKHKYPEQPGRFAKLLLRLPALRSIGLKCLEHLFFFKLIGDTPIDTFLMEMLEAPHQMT
Method: HepG2 (HB, 8065 from ATCC), an immortalized human epatocarcinoma cell line, was cultured and maintained at 37°C and 5% CO2 in E-MEM additioned with 10% FBS, 1% glutamine, and 1% penicillin/streptomycin. For FXR mediated transactivation, HepG2 cells were plated at 5 × 10^4 cells/well in a 24 well plate. Cells were transfected with 200 ng of the reporter vector p(hsp27)-TK-LUC containing a FXR response element (IR1) cloned from the promoter of heat shock protein 27 (hsp27), 100 ng of pSG5-FXR, 100 ng of pSG5-RXR, and 100 ng of pGL4.70 (Promega), a vector encoding the human Renilla gene. For GPBAR1 mediated transactivation, HepG2 cells were plated at 5 × 10^4 cells/well in a 24 well-plate and transfected with 200 ng of pGL4.29 (Promega), a reporter vector containing a cAMP response element (CRE) that drives the transcription of the luciferase reporter gene luc2P, with 100 ng of pCMVSPORT6-human GPBAR1, and with 100 ng of pGL4.70 Renilla. […]. TLCA (10 μM) was used as a positive control for GPBAR1 activity.
HepG2 cells were transfected as described above and then treated with increasing concentrations of compounds. At 18 h post stimulations, cellular lysates were assayed for luciferase and Renilla activities using the Dual-Luciferase Reporter assay system (E1980, Promega). Luminescence was measured using Glomax 20/20 luminometer (Promega). Luciferase activities were normalized with Renilla activities.

PPARα = target: T2, PPARα (Homo sapiens, UniProt Q07869); test: PPARα transactivation on HepG2 cells (GAL4 LBD reporter); type: cell-based; conditions: 10 μM
T2 construct: expressed in transfected cells; host or cells: HepG2
T2 sequence (Q07869 239-466 limits assumed): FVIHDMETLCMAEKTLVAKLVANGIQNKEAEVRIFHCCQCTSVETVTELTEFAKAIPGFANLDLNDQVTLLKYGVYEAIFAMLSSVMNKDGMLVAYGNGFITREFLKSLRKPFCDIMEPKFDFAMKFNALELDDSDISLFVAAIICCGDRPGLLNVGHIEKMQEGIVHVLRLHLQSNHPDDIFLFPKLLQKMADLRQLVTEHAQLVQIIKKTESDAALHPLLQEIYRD
Method: To evaluate LXRα and LXRβ mediated transactivation, HepG2 cells were transfected with 200 ng of the reporter vector p(UAS)5XTKLuc, 100 ng of a vector containing the ligand binding domain of LXRα or LXRβ cloned upstream of the GAL4-DNA binding domain (i.e., pSG5-LXRαLBD-GAL4DBD or pSG5-LXRβLBD-GAL4DBD) and 100 of pGL4.70 Renilla. At 24 h post-transfection, cells were stimulated 18 h with 10 μM compound 2 and GW3965 (GW, 10 μM) was used as positive control. To investigate the PPARα and PPARγ mediated transactivation, HepG2 cells were transiently transfected with 200 ng reporter vector p(UAS)9XTKLuc, 100 ng of a vector containing the ligand binding domain of PPARα or PPARγ cloned upstream of the GAL4-DNA binding domain (i.e., pSG5- PPARαLBD-GAL4DBD or pSG5- PPARγLBD-GAL4DBD) and 100 of pGL4.70 Renilla. For PPARα transactivation, cells were stimulated with 10 μM compound 2 and gemfibrozil (GEM, 10 μM) was used as positive control. For PPARγ transactivation, cells were stimulated with 10 μM compound 2 and rosiglitazone (ROSI, 100 nM) was used as a positive control. Luciferase activities were assayed and normalized with Renilla activities.

**Q.** How did the EC50 (hFXR; 10 nM to 25 μM, 18 h) turn out when `CC[C@H]1[C@@H](O)[C@@H]2[C@H](CC[C@]3(C)[C@@H]([C@H](C)CCC(=O)O)CC[C@@H]23)[C@@]2(C)CC[C@H](N=[N+]=[N-])C[C@@H]12` [compound 2, 3β-azido-6α-ethyl-7α-hydroxy-5β-cholan-24-oic acid] was run?
**A.** Its EC50 is 846 nM.

**Q.** What about the “FXR transactivation compared with 6-ECDCA” value (hFXR; 10 μM) of the same compound?
**A.** The value was “equipotent with 6-ECDCA”.

**Q.** What about the PPARα transactivation (PPARα) of the same compound?
**A.** The PPARα transactivation was “unable in inducing”.
